In PubChem BioAssay (NCI):
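Assay format: 96-well plates, 48-hour exposure. The concentration for full growth arrest is given as TGI.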

Columns and labels:
Experiment in all cases: DTP human tumour cell line panel, 48 h
HT29 colon = tested on: HT29 colon
HL-60(TB) leukemia = tested on: HL-60(TB) leukemia
SF-268 CNS = tested on: SF-268 CNS
SN12C renal = tested on: SN12C renal
HCC-2998 colon = tested on: HCC-2998 colon
UO-31 renal = tested on: UO-31 renal
OVCAR-4 ovarian = tested on: OVCAR-4 ovarian
SNB-75 CNS = tested on: SNB-75 CNS
OVCAR-8 ovarian = tested on: OVCAR-8 ovarian
HCT-116 colon = tested on: HCT-116 colon
ACHN renal = tested on: ACHN renal
UACC-257 melanoma = tested on: UACC-257 melanoma
NCI/ADR-RES ovarian = tested on: NCI/ADR-RES ovarian
IGROV1 ovarian = tested on: IGROV1 ovarian
MCF7 breast = tested on: MCF7 breast
KM12 colon = tested on: KM12 colon
DU-145 prostate = tested on: DU-145 prostate
SK-MEL-28 melanoma = tested on: SK-MEL-28 melanoma
HS 578T breast = tested on: HS 578T breast
SK-OV-3 ovarian = tested on: SK-OV-3 ovarian
COLO 205 colon = tested on: COLO 205 colon
A549 NSCLC = tested on: A549 NSCLC
CAKI-1 renal = tested on: CAKI-1 renal
RXF 393 renal = tested on: RXF 393 renal
K-562 leukemia = tested on: K-562 leukemia
LOX IMVI melanoma = tested on: LOX IMVI melanoma
SK-MEL-5 melanoma = tested on: SK-MEL-5 melanoma
EKVX NSCLC = tested on: EKVX NSCLC
SF-295 CNS = tested on: SF-295 CNS
PC-3 prostate = tested on: PC-3 prostate
MALME-3M melanoma = tested on: MALME-3M melanoma
SW-620 colon = tested on: SW-620 colon
NCI-H23 lung = tested on: NCI-H23 lung
NCI-H226 lung = tested on: NCI-H226 lung
UACC-62 melanoma = tested on: UACC-62 melanoma
U251 CNS = tested on: U251 CNS
SF-539 CNS = tested on: SF-539 CNS
A498 renal = tested on: A498 renal
T-47D breast = tested on: T-47D breast
HOP-62 NSCLC = tested on: HOP-62 NSCLC
TK-10 renal = tested on: TK-10 renal
CCRF-CEM leukemia = tested on: CCRF-CEM leukemia
BT-549 breast = tested on: BT-549 breast
MDA-MB-435 = tested on: MDA-MB-435
HOP-92 NSCLC = tested on: HOP-92 NSCLC
RPMI-8226 leukemia = tested on: RPMI-8226 leukemia
M14 melanoma = tested on: M14 melanoma
MDA-MB-231 breast = tested on: MDA-MB-231 breast
OVCAR-3 ovarian = tested on: OVCAR-3 ovarian
SK-MEL-2 melanoma = tested on: SK-MEL-2 melanoma
OVCAR-5 ovarian = tested on: OVCAR-5 ovarian
HCT-15 colon = tested on: HCT-15 colon
NCI-H460 lung = tested on: NCI-H460 lung
SNB-19 CNS = tested on: SNB-19 CNS
MOLT-4 leukemia = tested on: MOLT-4 leukemia
786-0 renal = tested on: 786-0 renal
MDA-N = tested on: MDA-N
NCI-H522 lung = tested on: NCI-H522 lung
SR leukemia = tested on: SR leukemia

Measured: TGI

Cc1nc2c(=O)n3c4c(cccc4c2o1)CCC3
not listed: NCI-H522 lung | SR leukemia
> 100 µM: all other assays above

COCCOC(=O)C(C)=[N+]=[N-]
not listed: HL-60(TB) leukemia | SK-OV-3 ovarian | A549 NSCLC | SF-539 CNS | CCRF-CEM leukemia | HOP-92 NSCLC | M14 melanoma | SK-MEL-2 melanoma | MOLT-4 leukemia
> 100 µM: all other assays above
